Entries after “also recorded” stand apart in the source; their conditions may differ.
Experiments:
[1] = molecular target: T1, HSA (Homo sapiens, UniProt P02768); assay: Competition of NBD C12 (17) on HSA with ibuprofen and warfarin; format: binding; conditions: from competition with warfarin and ibuprofen
T1 construct: purchased Sigma Aldrich A1887
Method: In analogy to the experiments measuring the fluorescence of the fluorescence-labelled derivatives without HSA above, the solutions were pipetted from the 96 well microplate into a 384 well microplate. […] The fluorescence measurement without a wavelength scan was carried out in analogy to the above-referenced experiment.

[2] = molecular target: T1, HSA; assay: Fluorescence of NBD and dansyl dyes with increasing HSA (FRET effect, emission maxima); format: binding
Method: Absorption and fluorescence of fluorescence-labelled derivatives and HSA were carried out in a Varioskan™ microplate reader (Thermo Electron Corporation). 96 well (Costar, half area, flat bottom) microplates were used for absorption measurements and 384 well (Greiner Bio One, small volume, black) microplates from Greiner Bio One were used for fluorescence measurements. All measurements were carried out at pH 7.4 and room temperature.
5.00 ml of a 400 μM solution were prepared from the HSA stock solution. From this solution a geometric dilution series with 7 dilution steps, a dilution factor of 0.5 and a final volume of each concentration of 2.5 ml were prepared.
Defined concentrations of the fluorescence-labelled compounds were selected from the preceding experiment without HSA above and double-concentrated solutions thereof were prepared to take into account the later 1:1 dilution. For each fluorescence-labelled compound (12-17; 19-25) 1.00 ml of these double-concentrations was prepared. 50 μl of the dye solutions were introduced into a 96 well microplate and 50 μl each of the HSA dilution series were added. By mixing the solutions the concentrations of dye derivatives and the HSA solution were halved. The measurements of the absorption and fluorescence were carried out in analogy to the above experimental procedure without HSA.
In analogy to the absorption measurement the effect of HSA on the fluorescence of the dyes (12-17; 19-25) was determined. The same concentrations of NBD and dansyl dyes and the same concentration range for HSA as already described above were used.

[3] = molecular target: T2, amino acid Trp214 of HSA (Homo sapiens, UniProt P02768); assay: FRET interactions of NBD C12 (17) with Trp214 of HSA; format: binding; conditions: for tryptophan emission intensity of HSA after addition of the dye: emission 330 nm, without dye 170/171 FI
T2 construct: purchased Sigma Aldrich A1887
T2 sequence (P02768 25-609): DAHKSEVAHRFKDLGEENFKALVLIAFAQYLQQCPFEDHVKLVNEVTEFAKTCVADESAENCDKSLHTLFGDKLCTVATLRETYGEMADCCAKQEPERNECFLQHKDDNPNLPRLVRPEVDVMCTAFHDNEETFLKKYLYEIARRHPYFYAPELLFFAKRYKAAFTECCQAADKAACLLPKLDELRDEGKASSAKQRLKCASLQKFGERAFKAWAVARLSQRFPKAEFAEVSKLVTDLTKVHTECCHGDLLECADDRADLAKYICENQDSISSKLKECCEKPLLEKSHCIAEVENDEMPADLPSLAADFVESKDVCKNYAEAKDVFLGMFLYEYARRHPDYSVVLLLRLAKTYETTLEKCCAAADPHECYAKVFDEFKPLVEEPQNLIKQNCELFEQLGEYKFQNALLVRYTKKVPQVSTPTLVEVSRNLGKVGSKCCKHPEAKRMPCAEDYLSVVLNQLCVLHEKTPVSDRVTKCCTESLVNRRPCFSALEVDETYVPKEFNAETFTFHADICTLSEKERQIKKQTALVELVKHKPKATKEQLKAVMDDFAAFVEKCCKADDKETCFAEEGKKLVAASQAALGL
Method: For determining FRET (Förster resonance energy transfer) interactions of NBD C12 (17) with amino acid Trp214 of HSA, concentrations of a dye-HSA mixture according to Table 8 were applied in an amount of 250 μl for each case.
100 μl of mixture 7 were pipetted into a 96 well microplate and a wavelength scan for the absorption in the range from 250 nm to 700 nm was carried out. In each case 15 μl of the residual solutions 1 to 6 were pipetted four times into a black 384 well microplate and emission spectra of the solution in the range from 270 nm to 700 nm were recorded at 290 nm excitation wavelength of the Trp.
For dye NBD C12 (17) the FRET effect between the tryptophan of the HSA and the dye itself was investigated more precisely. The emission spectrum of the amino acid tryptophan overlapped with the absorption spectrum of the NBD dye, because the energy of the donor to be transferred must lie in the region of the possible energy absorption of the acceptor. This is the case when the two spectra overlap. For measurement, both solutions were employed in identical concentrations (25 μM) and the units of the fluorescence intensities (FIrel) and the absorption strength (ODrel) were standardized. An excitation wavelength of 290 nm was utilized for the emission spectrum of tryptophan.
In the next step, different concentrations of NBD C12 (17) were added to the HSA solution until a ratio of NBD to HSA of 1:1 was reached, and the emission spectra were measured.
The efficiency of the energy transfer occurring was calculated using the equation 3.4.
The distance R0, at which a 50% energy exchange takes place, was calculated according to the following equation. Furthermore, by transformation of said equation the real distance r of donor and acceptor was determined.
The fluorescence quantum yield for tryptophan is 0.15.

[4] = molecular target: T1, HSA; assay: Displacement of NBD derivatives on HSA by natural fatty acids C6 to C16 (fluorescence); format: binding; conditions: ranking among NBD C8, C10 and C12 from the competition experiments
Method: Dilution series for competition experiments with the fatty acids C6 to C16 were diluted with phosphate-buffered saline solution (DPBS buffer). Geometric dilution series of each fatty acid were prepared in 384 well microplates with a starting concentration of 2500 μM and a dilution factor of 0.33 and also 9 dilution steps. The final volume of each concentration was 80 μl. The plated-out fatty acids were stored in the deep freeze (−25° C.) until use.
For displacement experiments 2.50 ml of a 25 μM HSA solution were used per dye derivative. Due to the subsequent dilution steps the HSA concentration was doubled twice such that 2.50 ml of […] solution were prepared.
The dye concentrations were also doubled twice by the following dilution steps. 2.50 ml of each dye solution were needed. 2.10 ml of the respective dye solution were then mixed with 2.10 ml of the 100 μM HSA solution. The respective concentrations of the solutions halve here once. 50 μl of the mixture per well were introduced into a 96 well microplate.
The fatty acid microplates were brought to room temperature and 50 μl each of the dilution series were pipetted into the HSA-dye mixture. The concentrations of all solution constituents were thereby halved once again. In analogy to the experiments measuring the fluorescence of the fluorescence-labelled derivatives without HSA above, the solutions were pipetted from the 96 well microplate into a 384 well microplate. Absorption was not measured. The fluorescence measurement without a wavelength scan was carried out in analogy to the above-referenced experiment.
A concentration of 25 μM and a binding ratio of the NBD derivatives to HSA of 1:1 were employed for the displacement studies. For each dye derivative an NBD-HSA mixture with a concentration of 25 μM was prepared.

[5] = log D7.4 determination by RP-HPLC, similar to the water/octanol partition coefficient method; format: physicochemical; conditions: pH 7.4, RP-HPLC C18, range −1 to +6
Method: log D7.4 values were determined by a method similar to the partition coefficient method in a water/octanol mixture and were carried out on an RP-HPLC from Waters Alliance (2795) having a C18 column (2×20 mm) with a gradient of morpholinesulfonic acid buffer (pH 7.4) and acetonitrile. The range was between −1 ([…]) to +6 (lipophilic).

[6] = molecular target: T1, HSA; assay: Job plot of the fluorescence: stoichiometry of labelled fatty acids to HSA; format: binding; conditions: maximum in the curve or none
Method: The stoichiometry of NBD- and dansyl-labelled fatty acids bound to HSA was determined by Job plots, also called the “method of continuous variability” as different mole fractions of the respective binding partners are mixed with one another and then measured spectroscopically. Solutions of equimolar concentrations of HSA and dye were mixed such that the mole fractions of the substances were varied but the total molarity of the sample solution stayed constant. For short NBD derivatives C2 to C6 (12-14) no binding to HSA was confirmed, whereas binding ratios for long NBD derivatives C8 to C12 (15-17) to HSA were 1:1. For short dansyl derivatives C2 to C8 (19-22) binding ratios for HSA were 2:1, whereas the long dansyl derivatives C10 and C12 (23-24) bound to HSA in the ratio of 4:1. The finding that even dansyl C2 (19) was bound to HSA led to the question as to what extent the dansyl label itself is recognized by HSA. Because even dansyl methylamide (25) bound to HSA, even though it lacks a carboxyl group, it seems that the dye label could also bind to HSA.
For the Job plot the dye and HSA solutions were employed in equimolar amounts. 10.00 ml of 100 μM HSA solution and in each case 2.00 ml of a 100 μM dye solution (12-17; 19-25) were prepared from the above stock solutions. For the Job plot method the dye solutions were mixed with the HSA solution in different ratios as described below in Table 8. […] According to the same dilution scheme the dye solutions were also mixed with DPBS buffer for measuring the blank values of the fluorescence-labelled derivatives (see K. C. Ingham, Analytical Biochemistry 68 (1975) 660-663). […] Absorption was not measured. A fluorescence measurement without a wavelength scan was also carried out in analogy to the above experiment without HSA.
For NBD derivatives (12-17) and HSA 100 μM solutions were used. […] In total 11 solutions per dye derivative were prepared for fluorescence measurement by mixing the two binding partners. […] The fluorescence intensities were plotted against the mole fractions of the binding partners. […]

[7] = HSA 25 μM, NBD to HSA up to 1:1, excitation 290 nm

T1 sequence (P02768 25-609): as above

SMILES | binding site on HSA [1] | Δλ, shift of emission maximum λem without HSA vs with HSA ([2]; NBD compound 25 μM, λex = 480 nm) | change in fluorescence intensity with increasing HSA concentration ([2]; NBD derivatives 25 μM, HSA 1.56 to 200 μM, 480-550 nm, pH 7.4) | fluorescence of the dye on excitation of tryptophan [3, 7] | tryptophan emission intensity of HSA after addition of the dye [3, 7] | tryptophan emission intensity of HSA after addition of the dye ([3]; HSA 25 μM, NBD to HSA up to 1:1, excitation 290 nm, listed as NBD dye C12 (17)) | efficiency of the energy transfer ([3]; calculated from I 82 FI and I0 171 FI) | relative binding affinity of the NBD dye for HSA [4] | chromatographic logD [5] | log D7.4 [5] | Δλ, shift of emission maximum λem without HSA vs with HSA ([2]; dansyl compound 100 μM, λex = 330 nm) | binding to HSA (qualitative) [6]
O=C(O)CCCCCCCCCCCNc1ccc([N+](=O)[O-])c2nonc12 [NBD C12 (17), 12-(7-Nitrobenzo[1,2,5]oxadiazol-4-ylamino)dodecanoic acid] | neither bound the Sudlow's site I nor the Sudlow's site II | 16 nm | increase in fluorescence intensity | 15 FI | 82 FI | 80 FI | approximately 52% | greatest binding affinity; also recorded: bounds best | 2.84 | 2.84 | – | –
CN(C)c1cccc2c(S(=O)(=O)NCC(=O)O)cccc12 [dansyl C2 (19), (5-Dimethylaminonaphthalene-1-sulfonylamino)ethanoic acid] | – | – | – | – | – | – | – | – | 1.02 | – | 94 nm | bound to HSA

From patent US20150285812A1, “Fluorescence-Labelled Fatty Acids and Uses Thereof” (SANOFI, priority 2012, published 2015)
